System: MCP-1
Test: MCP-1 ELISA in P rat NAc
Format: in vivo
Conditions: 15 mg/kg I.P., 45 min
Method: ELISA. Brain tissue micropunches were lysed with Cellyte MT and the extracts were assayed for protein content by the BCA procedure (Pierce) and for MCP-1 using the rat MCP-1 ELISA kit (Raybiotech—ERC-MCP-1-CL; Norcross, Ga., USA) or for fracktalkine using the rat fractalkine ELISA kit (Raybiotech—ERC-CX3CL1-CL; Norcross, Ga., USA) as per manufacturer's instructions.
Next, potential sex differences were directly examined in baseline or 3α,5α-THP inhibition of MCP-1 and pIRF7 expression in female vs. male P rat NAc (FIG. 9). […] Systemic administration of 3α,5α-THP (15 mg/kg, I.P.) to naïve female and male P rats inhibited the expression of MCP-1 (40% in female rat NAc; 25% in male rat NAc). Likewise, 3α,5α-THP administration to naïve female and male P rats inhibited the expression of pIRF7 to the same extent, (55% in female rat NAc; 55% in male rat NAc).

CC(=O)[C@H]1CC[C@H]2[C@@H]3CC[C@H]4C[C@H](O)CC[C@]4(C)[C@H]3CC[C@]12C [3α,5α-THP, (3α,5α)3-hydroxypregnan-20-one]
inhibition of MCP-1 expression in NAc (naïve female P rats): 40% | inhibition of MCP-1 expression in NAc (naïve male P rats): 25%

— patent publication US20210205329A1 (The University of North Carolina at Chapel Hill, priority 2018, published 2021)
